Tests used:
Assay type in all cases: in vivo
[1] = system: db/db mice; experiment: Blood glucose and leptin in mouse type II diabetes model, limonoid compound, gliclazide or combination; conditions: single administration 0.04 g/kg per day by gavage, two weeks, 1 h after last administration, model group 23.9 ± 4.2, normal 6.0 ± 0.7
From the text: In the present example, db/db mice (line name BKS.Cg-Dock7^m+/+Lepr^db/Nju) were used to perform hypoglycemic efficacy evaluation test of animals (blood glucose level and leptin). The limonoid compound was selected from obacunone, isoobacunoic acid and obacunone glycoside, and gliclazide single administration group, obacunone single administration group, isoobacunoic acid single administration group, obacunone glycoside single administered group, and respective combination thereof with gliclazide administration groups were set. Conditions for experimental feeding: as type II diabetes model mice, 6-week-old SPF-grade db/db mice were purchased from the Nanjing Model Biology Institute, and subjected to experimental feeding after 7 days of preliminary feeding. It should be noted that the conditions for raising the mice were as follows: the temperature was 23±1° C., the humidity was 55±10%, the lights were turned on between 7 am and 7 pm (the lights were turned off at other time), and the mice were allowed to freely take in water and feed. […] The data were expressed as mean and standard deviation. The data before and after were analyzed by t-test, and P<0.05 was considered statistically significant.

[2] = system: STZ mice (mouse pancreatic islet β-cell injury model); experiment: Blood glucose in mouse pancreatic islet β-cell injury model (STZ), limonoid compound, glipizide or combination; conditions: STZ ICR mice, single administration 0.1 g/kg per day by gavage, two weeks, 1 h after last administration; model group 29.5 ± 4.6, normal 7.5 ± 0.6
From the text: In this example, a mouse pancreatic islet β-cell injury model was established by modeling ICR mice with streptozotocin (STZ) (Li Nan et al., Protective effect of pine pollen on kidney damage in diabetic nephropathy mice, Science and Technology Review, 2014, 32 (4/5): 95-99), and used to complete the evaluation of hypoglycemic effect in animals (this model could simulate pancreatic islet β-cell damage state of type I and type II diabetics). […]
Gavage doses: the gavage dose was 0.1 g/kg per day for the ichangin group, the gavage dose was 0.1 g/kg per day for the ichangensin group, the gavage dose was 0.1 g/kg per day for the ichangin glycoside group, the gavage dose of glipizide was 0.1 g/kg per day for the glipizide group, ichangin at a dose of 0.05 g/kg and glipizide at a dose of 0.05 g/kg were simultaneously gavaged per day for the ichangin/glipizide combination group, ichangensin at a dose of 0.05 g/kg and glipizide at a dose of 0.05 g/kg were simultaneously gavaged per day for the ichangensin/glipizide combination group, ichangin glycoside at a dose of 0.05 g/kg and glipizide at a dose of 0.05 g/kg were simultaneously gavaged per day for the ichangin glycoside/glipizide combination group, the gavage volume was 10 mL/kg, and the normal group and the model group were administrated with 10 mL/kg of distilled water. […] The data were expressed as mean and standard deviation. […]

[3] = system: db/db mice; experiment: Blood glucose and insulin in mouse type II diabetes model, limonoid compound, gliquidone or combination; conditions: single administration 0.2 g/kg per day by gavage, two weeks
From the text: In the present embodiment, the limonoid compound was selected from nomilin, deacetylnomilin, nomilin acid, deacetylnomilin acid glycoside, and gliquidone single administration group, nomilin single administration group, deacetylnomilin single administration group, nomilin acid single administered group, deacetylnomilin acid glycoside single administration group, and respective combination thereof with gliquidone administration groups were set.
Conditions for experimental feeding: as type II diabetes model mice, 6-week-old SPF-grade db/db mice were purchased from the Nanjing Model Biology Institute, and subjected to experimental feeding after 7 days of preliminary feeding. It should be noted that the conditions for raising the mice were as follows: the temperature was 23±1° C., the humidity was 55±10%, the lights were turned on between 7 am and 7 pm (the lights were turned off at other time), and the mice were allowed to freely take in water and feed. The experimental feed was mouse growth-stable feed (GB M2118), and the daily feeding and management of the animals were under the responsibility of the animal security department, which provided the animals with sufficient diet and fresh drinking water daily.
Experimental grouping: male db/db mice (20±2 g) were selected, 18 male mice in each group were tested, and drinking bottles were sterilized weekly. […]

[4] = system: STZ mice (type II diabetes with pancreatic islet damage and obesity); experiment: Blood glucose in mouse type II diabetes model with pancreatic islet damage and obesity (STZ + high-fat diet), limonoid compound, glimepiride or combination; conditions: STZ + high-fat diet ICR mice, single administration 0.5 g/kg per day by gavage, two weeks, 1 h after last administration; model group 29.6 ± 6.0, normal 5.9 ± 0.54
From the text: In this example, a mouse model of type II diabetes with pancreatic islet damage and obesity was established by multiple modeling ICR mice with a small dose of streptozotocin (STZ), following with continuous high-fat diets (referring to literature: […] Conditions of experimental feeding: ICR mice (20±2 g), aged 6 weeks, purchased from Zhejiang Academy of Medical Sciences, and subjected to experimental feeding after 7 days of preliminary feeding. It should be noted that the conditions for raising the mice were as follows: the temperature was 23±1° C., the humidity was 55±10%, the lights were turned on between 7 am and 7 pm (the lights were turned off at other time), and the mice were allowed to freely take in water and feed. The experimental feed was mouse growth-stable feed (GB […]), and the daily feeding and management of the animals were under the responsibility of the animal security department, which provided the animals with sufficient diet and fresh drinking water daily. […] The data were expressed as mean and standard deviation. The data before and after were analyzed by t-test, and P<0.05 was considered statistically significant.

[5] = system: STZ mice (mouse pancreatic islet β-cell injury model); experiment: Blood glucose in mouse pancreatic islet β-cell injury model (STZ), limonoid compound, glibenclamide or combination; conditions: STZ ICR mice, single administration 0.02 g/kg per day by gavage, two weeks, 1 h after last administration; model group 29.5 ± 4.6, normal 7.5 ± 0.6
From the text: The limonoid compound was selected from the group consisting of limonin, isolimonic acid, limonin glycoside, and isolimonic acid glycoside, and glibenclamide single administration group, limonin single administration group, isolimonic acid single administration group, limonin glycoside singe administration group, isolimonic acid glycoside singe administration group, and respective combination thereof with glibenclamide administration groups were set. Conditions of experimental feeding: ICR mice (20±2 g), aged 6 weeks, purchased from Zhejiang Academy of Medical Sciences, and subjected to experimental feeding after 7 days of preliminary feeding. It should be noted that the conditions for raising the mice were as follows: the temperature was 23±1° C., the humidity was 55±10%, the lights were turned on between 7 am and 7 pm (the lights were turned off at other time), and the mice were allowed to freely take in water and feed. The experimental feed was mouse growth-stable feed (GB […]), and the daily feeding and management of the animals were under the responsibility of the animal security department, which provided the animals with sufficient diet and fresh drinking water daily. […] The data were expressed as mean and standard deviation. The data before and after were analyzed by t-test, and P<0.05 was considered statistically significant.

Cc1ccc(S(=O)(=O)NC(=O)NN2CC3CCCC3C2)cc1 (stereo not drawn) [Gliclazide, gliclazide] gave a Blood glucose value [1] of 11.5 ± 2.9 mmol/L.

Cc1cnc(C(=O)NCCc2ccc(S(=O)(=O)NC(=O)NC3CCCCC3)cc2)cn1 [Glipizide, glipizide] gave a Blood glucose value [2] of 14.5 ± 2.3 mmol/L.

COc1ccc2c(c1)C(=O)N(CCc1ccc(S(=O)(=O)NC(=O)NC3CCCCC3)cc1)C(=O)C2(C)C [gliquidone] showed an Insulin ([3]; serum, ELISA, model group 10.56 ± 3.00, normal 1.05 ± 0.39) of 7.82 ± 1.52 pg/mL and a Blood glucose value ([3]; 1 h after last administration, model group 23.9 ± 4.2, normal 6.0 ± 0.7) of 10.3 ± 2.1 mmol/L.

In the case of CCC1=C(C)CN(C(=O)NCCc2ccc(S(=O)(=O)NC(=O)N[C@H]3CC[C@H](C)CC3)cc2)C1=O [Glimepiride, glimepiride], the Blood glucose value [4] was 10.4 ± 2.1 mmol/L.

Compound COc1ccc(Cl)cc1C(=O)NCCc1ccc(S(=O)(=O)NC(=O)NC2CCCCC2)cc1 [Glibenclamide, glibenclamide] has a Blood glucose value [5] of 18.3 ± 3.2 mmol/L.

From patent US20220296615A1, “COMBINATION PRODUCT CONTAINING LIMONOID COMPOUND AND SULFONYLUREA COMPOUND” (ZHEJIANG YANGSHENGTANG INSTITUTE OF NATURAL MEDICATION CO., …, priority 2019, published 2022)
